Data published in US9453014B2, “Cyclic amide derivatives as inhibitors of 11-β-hydroxysteroid dehydrogenase and uses thereof” (CONNEXIOS LIFE SCIENCES PVT. LTD., priority 2011, dated 2016).

Target: T1, human full length HSD11 β 1 (Homo sapiens, UniProt P28845)
T1 construct: transient expression of human full length HSD11 β 1 expression vector; host or cells: CHO cells (transient transfection)
Assay: In Vitro HSD11β1 Inhibition Assay
Format: cell-based
Details: CHO cells transiently expressing human HSD11β1; 200 nM cortisone+500 uM NADPH overnight; cortisone to cortisol by LC/MS-MS; read-out: 11βHSD1 (IC50)
Method in brief: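 CHO cells transiently transfected with human full-length HSD11β1 were re-seeded after 24 h and, 24 h later, incubated overnight with 200 nM cortisone plus 500 uM NADPH and inhibitor. Cortisone-to-cortisol conversion was measured by LC/MS-MS. IC50 from an 8-point log concentration–inhibition curve.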

T1 sequence (P28845 whole entry): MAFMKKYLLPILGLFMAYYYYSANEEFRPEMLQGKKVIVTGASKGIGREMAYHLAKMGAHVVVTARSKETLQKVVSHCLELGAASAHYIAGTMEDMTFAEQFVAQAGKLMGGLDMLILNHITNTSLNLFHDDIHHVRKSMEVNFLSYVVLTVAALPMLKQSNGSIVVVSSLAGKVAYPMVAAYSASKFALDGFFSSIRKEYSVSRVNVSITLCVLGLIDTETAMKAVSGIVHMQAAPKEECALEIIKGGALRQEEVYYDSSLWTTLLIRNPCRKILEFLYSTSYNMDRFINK

| IC50 [nM] | Compound |
| --- | --- |
| 100 to 150 | CC(C)Oc1cccc2c1c(C(C)CC(=O)N1CCCC3C(C(=O)O)CCCC31)cn2C (stereo not shown) [Compound 208, 1-{3-[1-methyl-4-(propan-2-yloxy)-1H-indol-3-yl]butanoyl}decahydroquinoline-5-carboxylic acid] |
| 150 to 200 | CC(CC(=O)N1CCCC2C(C(=O)O)CCCC21)c1cn(C)c2cccc(Cl)c12 (stereo not shown) [Compound 209, 1-[3-(4-chloro-1-methyl-1H-indol-3-yl)butanoyl]decahydroquinoline-5-carboxylic acid] |
| 100 to 150 | CCn1cc(C(C)CC(=O)N2CCCC3C(C(=O)O)CCCC32)c2c(C3CC3)cccc21 (stereo not shown) [Compound 210, 1-[3-(4-cyclopropyl-1-ethyl-1H-indol-3-yl)butanoyl]decahydroquinoline-5-carboxylic acid] |
| < 100 | CC(C)c1cccc2[nH]cc(C(C)CC(=O)N3CCCC4C(C(=O)O)CCCC43)c12 (stereo not shown) [Compound 211, 1-{3-[4-(propan-2-yl)-1H-indol-3-yl]butanoyl}decahydroquinoline-5-carboxylic acid] |
| < 100 | CC(CC(=O)N1CCCC2C(C(=O)O)CCCC21)c1c[nH]c2cccc(-c3ccco3)c12 (stereo not shown) [Compound 215, 1-{3-[4-(furan-2-yl)-1H-indol-3-yl]butanoyl}decahydroquinoline-5-carboxylic acid] |
| < 100 | CC(CC(=O)N1CCCC2C(C(=O)O)CCCC21)c1cn(C)c2cccc(-c3ccco3)c12 (stereo not shown) [Compound 216, 1-{3-[4-(furan-2-yl)-1-methyl-1H-indol-3-yl]butanoyl}decahydroquinoline-5-carboxylic acid] |
| 100 to 150 | CC(CC(=O)N1CCCC2CC(C(=O)O)CCC21)c1c[nH]c2cccc(C3CC3)c12 (stereo not shown) [Compound 217, 1-[3-(4-cyclopropyl-1H-indol-3-yl)butanoyl]decahydroquinoline-6-carboxylic acid] |
| < 100 | CC(CC(=O)N1CCCC2C(C(=O)O)CCCC21)c1c[nH]c2ccc(F)c(C3CC3)c12 (stereo not shown) [Compound 220, 1-[3-(4-cyclopropyl-5-fluoro-1H-indol-3-yl)butanoyl]decahydroquinoline-5-carboxylic acid] |
| < 100 | CC(CC(=O)N1CCCC2C(C(=O)O)CCCC21)c1c[nH]c2cccc(-c3ccco3)c12 (stereo not shown) [Compound 221, 1-{3-[4-(furan-2-yl)-1H-indol-3-yl]butanoyl}decahydroquinoline-5-carboxylic acid] |
| 100 to 150 | CC(CC(=O)N1CCCC2C(C(=O)O)CCCC21)c1c[nH]c2cccc(-c3ccco3)c12 (stereo not shown) [Compound 222, 1-{3-[4-(furan-2-yl)-1H-indol-3-yl]butanoyl}decahydroquinoline-5-carboxylic acid] |
| > 250 | CC(CC(=O)N1CCC(C(=O)O)C2CCCCC21)c1c[nH]c2cccc(-c3ccco3)c12 (stereo not shown) [Compound 227, 1-{3-[4-(furan-2-yl)-1H-indol-3-yl]butanoyl}decahydroquinoline-4-carboxylic acid] |
| > 250 | CC(CC(=O)N1CCCC2CC(C(=O)O)CCC21)c1c[nH]c2cccc(Cl)c12 (stereo not shown) [Compound 228, 1-[3-(4-chloro-1H-indol-3-yl)butanoyl]decahydroquinoline-6-carboxylic acid] |
| 100 to 150 | CC(CC(=O)N1CCCC2CC(C(=O)O)CCC21)c1c[nH]c2cccc(-c3ccco3)c12 (stereo not shown) [Compound 229, 1-{3-[4-(furan-2-yl)-1H-indol-3-yl]butanoyl}decahydroquinoline-6-carboxylic acid] |
| 150 to 200 | CC(CC(=O)N1C(C)CCC2C(C(=O)O)CCCC21)c1c[nH]c2cccc(C3CC3)c12 (stereo not shown) [Compound 230, 1-[3-(4-cyclopropyl-1H-indol-3-yl)butanoyl]-2-methyldecahydroquinolin-5-carboxylic acid] |
| 150 to 200 | CC(CC(=O)N1C(C)CCC2C(C(=O)O)CCCC21)c1c[nH]c2cccc(-c3ccco3)c12 (stereo not shown) [Compound 231, 1-{3-[4-(furan-2-yl)-1H-indol-3-yl]butanoyl}-2-methyldecahydroquinoline-5-carboxylic acid] |
| 150 to 200 | CC(CC(=O)N1C(C)CCC2C(C(=O)O)CCCC21)c1c[nH]c2cccc(-c3cccs3)c12 (stereo not shown) [Compound 232, 2-methyl-1-{3-[4-(thiophen-2-yl)-1H-indol-3-yl]butanoyl}decahydroquinoline-5-carboxylic acid] |
| > 250 | CC(CC(=O)N1C(C)CCC2C(C(=O)O)CCCC21)c1c[nH]c2cccc(-c3cccs3)c12 (stereo not shown) [Compound 233, 2-methyl-1-{3-[4-(thiophen-2-yl)-1H-indol-3-yl]butanoyl}decahydroquinoline-5-carboxylic acid] |
| > 250 | CC(CC(=O)N1C(C)CCC2C(C(=O)O)CCCC21)c1c[nH]c2cccc(Cl)c12 (stereo not shown) [Compound 234, 1-[3-(4-chloro-1H-indol-3-yl)butanoyl]-2-methyldecahydroquinoline-5-carboxylic acid] |
| < 100 | CC(CC(=O)N1CCC(=O)C2CCCCC21)c1c[nH]c2cccc(Cl)c12 (stereo not shown) [Compound 235, 1-[3-(4-chloro-1H-indol-3-yl)butanoyl]octahydroquinolin-4(1H)-one] |

| IC50 [nM] | Compound |
| --- | --- |
| 100 to 150 | Cc1ccc(-c2cccc3[nH]cc(C(C)CC(=O)N4CCCC5C(C(=O)O)CCCC54)c23)o1 (stereo not shown) [Compound 236, 1-{3-[4-(5-methylfuran-2-yl)-1H-indol-3-yl]butanoyl}decahydroquinoline-5-carboxylic acid] |
| 150 to 200 | CC(CC(=O)N1CCCC2C1CCCC2(C)C(=O)O)c1c[nH]c2cccc(C3CC3)c12 (stereo not shown) [Compound 237, 1-[3-(4-cyclopropyl-1H-indol-3-yl)butanoyl]-5-methyldecahydroquinoline-5-carboxylic acid] |
| > 250 | CC(CC(=O)N1CCCC2C(C(=O)O)CCCC21)c1c[nH]c2cccc(-c3ccccn3)c12 (stereo not shown) [Compound 238, 1-{3-[4-(pyridin-2-yl)-1H-Indol-3-yl]butanoyl}decahydroquinoline-5-carboxylic acid] |
| > 250 | Cc1cc(-c2cccc3[nH]cc(C(C)CC(=O)N4CCCC5C(C(=O)O)CCCC54)c23)on1 (stereo not shown) [Compound 239, 1-{3-[4-(3-methyl-1,2-oxazol-5-yl)-1H-indol-3-yl]butanoyl}decahydroquinoline-5-carboxylic acid] |
| > 250 | CC(CC(=O)N1CCCC2C(c3nnn[nH]3)CCCC21)c1c[nH]c2cccc(C3CC3)c12 (stereo not shown) [Compound 240, 3-(4-cyclopropyl-1H-indol-3-yl)-1-[5-(1H-tetrazol-5-yl)octahydroquinolin-1(2H)-yl]butan-1-one] |
| > 250 | COn1cc(C(C)CC(=O)N2CCCC3C(C(=O)O)CCCC32)c2c(C3CC3)cccc21 (stereo not shown) [Compound 241, 1-[3-(4-cyclopropyl-1-methoxy-1H-indol-3-yl)butanoyl]decahydroquinoline-5-carboxylic acid] |
| > 250 | COCn1cc(C(C)CC(=O)N2CCCC3C(C(=O)O)CCCC32)c2c(C3CC3)cccc21 (stereo not shown) [Compound 242, 1-{3-[4-cyclopropyl-1-(methoxymethyl)-1H-indol-3-yl]butanoyl}decahydroquinoline-5-carboxylic acid] |
| < 100 | CC(CC(=O)N1CCCC2C(C(=O)O)CCCC21)c1c[nH]c2cccc(-c3ccc(F)cc3)c12 (stereo not shown) [Compound 243, 1-{3-[4-(4-fluorophenyl)-1H-indol-3-yl]butanoyl}decahydroquinoline-5-carboxylic acid] |
| > 250 | CC(CC(=O)N1CCCC2C(C(=O)O)CCCC21)c1c[nH]c2cccc(-c3cccn3C)c12 (stereo not shown) [Compound 244, 1-{3-[4-(1-methyl-1H-pyrrol-2-yl)-1H-indol-3-yl]butanoyl}decahydroquinoline-5-carboxylic acid] |
| < 100 | CC(CC(=O)N1CCCC2C(C(=O)O)CCCC21)c1c[nH]c2cccc(-c3ccc(F)o3)c12 (stereo not shown) [Compound 245, 1-{3-[4-(5-fluorofuran-2-yl)-1H-indol-3-yl]butanoyl}decahydroquinoline-5-carboxylic acid] |
| > 250 | CC(CC(=O)N1CCCC2CCCCC21)c1c[nH]c2cccc(-c3ccc(C(=O)O)o3)c12 (stereo not shown) [Compound 246, 5-{3-[4-(octahydroquinolin-1(2H)-yl)-4-oxobutan-2-yl]-1H-indol-4-yl}furan-2-carboxylic acid] |
| > 250 | CC(CC(=O)N1CCCC2C(C(=O)NCC(=O)O)CCCC21)c1c[nH]c2cccc(C3CC3)c12 (stereo not shown) [Compound 247, N-({1-[3-(4-cyclopropyl-1H-indol-3-yl)butanoyl]decahydroquinolin-5-yl}carbonyl)glycine] |
| > 250 | CC(CC(=O)N1CCCC2C(C(=O)O)CCCC21)c1c(C#N)[nH]c2cccc(C3CC3)c12 (stereo not shown) [Compound 252, 1-[3-(2-cyano-4-cyclopropyl-1H-indol-3-yl)butanoyl]decahydroquinoline-5-carboxylic acid] |
| < 100 | CC(CC(=O)N1CCCC2C(C(=O)O)CCCC21)c1c[nH]c2cccc(-c3ccc(F)cc3)c12 (stereo not shown) [Compound 253, 1-{3-[4-(4-fluorophenyl)-1H-indol-3-yl]butanoyl}decahydroquinoline-5-carboxylic acid] |
| > 250 | CC(CC(=O)N1CCCC2C(C(=O)O)CCCC21)c1c[nH]c2cccc(-c3ccc(F)cc3)c12 (stereo not shown) [Compound 254, 1-{3-[4-(4-fluorophenyl)-1H-indol-3-yl]butanoyl}decahydroquinoline-5-carboxylic acid] |
| 100 to 150 | CC(CC(=O)N1CCCC2C(C(=O)O)CCCC21)c1c[nH]c2cccc(-c3ccccc3F)c12 (stereo not shown) [Compound 257, 1-{3-[4-(2-fluorophenyl)-1H-indol-3-yl]butanoyl}decahydroquinoline-5-carboxylic acid] |
| > 250 | CC(CC(=O)N1CCCC2C(C(=O)O)CCCC21)c1c(C#N)n(C)c2cccc(C3CC3)c12 (stereo not shown) [Compound 258, 1-[3-(2-cyano-4-cyclopropyl-1-methyl-1H-indol-3-yl)butanoyl]decahydroquinoline-5-carboxylic acid] |
| 150 to 200 | CC(CC(=O)N1CCCC2C(C(=O)O)CCCC21)c1c[nH]c2cccc(-c3cccc(F)c3)c12 (stereo not shown) [Compound 259, 1-{3-[4-(3-fluorophenyl)-1H-indol-3-yl]butanoyl}decahydroquinoline-5-carboxylic acid] |
